Assay results as given in PubChem BioAssay (NCI).
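Method: 48-hour compound exposure of cells in 96-well plates, five concentrations, linear interpolation of endpoints. At the GI50, growth is halved. TGI: concentration producing complete growth inhibition.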

Legend:
Assay in all cases: growth of human tumour cells (NCI), 48 h
786-0 renal = test system: 786-0 renal
A498 renal = test system: A498 renal
A549 NSCLC = test system: A549 NSCLC
ACHN renal = test system: ACHN renal
BT-549 breast = test system: BT-549 breast
CAKI-1 renal = test system: CAKI-1 renal
CCRF-CEM leukemia = test system: CCRF-CEM leukemia
COLO 205 colon = test system: COLO 205 colon
DU-145 prostate = test system: DU-145 prostate
EKVX NSCLC = test system: EKVX NSCLC
HCC-2998 colon = test system: HCC-2998 colon
HCT-116 colon = test system: HCT-116 colon
HCT-15 colon = test system: HCT-15 colon
HOP-62 NSCLC = test system: HOP-62 NSCLC
HOP-92 NSCLC = test system: HOP-92 NSCLC
HS 578T breast = test system: HS 578T breast
HT29 colon = test system: HT29 colon
IGROV1 ovarian = test system: IGROV1 ovarian
K-562 leukemia = test system: K-562 leukemia
KM12 colon = test system: KM12 colon
LOX IMVI melanoma = test system: LOX IMVI melanoma
M14 melanoma = test system: M14 melanoma
MALME-3M melanoma = test system: MALME-3M melanoma
MCF7 breast = test system: MCF7 breast
MDA-MB-231 breast = test system: MDA-MB-231 breast
MDA-MB-435 = test system: MDA-MB-435
MDA-MB-468 breast = test system: MDA-MB-468 breast
MOLT-4 leukemia = test system: MOLT-4 leukemia
NCI-H226 lung = test system: NCI-H226 lung
NCI-H23 lung = test system: NCI-H23 lung
NCI-H460 lung = test system: NCI-H460 lung
NCI-H522 lung = test system: NCI-H522 lung
NCI/ADR-RES ovarian = test system: NCI/ADR-RES ovarian
OVCAR-3 ovarian = test system: OVCAR-3 ovarian
OVCAR-4 ovarian = test system: OVCAR-4 ovarian
OVCAR-5 ovarian = test system: OVCAR-5 ovarian
OVCAR-8 ovarian = test system: OVCAR-8 ovarian
PC-3 prostate = test system: PC-3 prostate
RPMI-8226 leukemia = test system: RPMI-8226 leukemia
RXF 393 renal = test system: RXF 393 renal
SF-268 CNS = test system: SF-268 CNS
SF-295 CNS = test system: SF-295 CNS
SF-539 CNS = test system: SF-539 CNS
SK-MEL-2 melanoma = test system: SK-MEL-2 melanoma
SK-MEL-28 melanoma = test system: SK-MEL-28 melanoma
SK-MEL-5 melanoma = test system: SK-MEL-5 melanoma
SK-OV-3 ovarian = test system: SK-OV-3 ovarian
SN12C renal = test system: SN12C renal
SNB-19 CNS = test system: SNB-19 CNS
SW-620 colon = test system: SW-620 colon
T-47D breast = test system: T-47D breast
TK-10 renal = test system: TK-10 renal
U251 CNS = test system: U251 CNS
UACC-257 melanoma = test system: UACC-257 melanoma
UACC-62 melanoma = test system: UACC-62 melanoma
UO-31 renal = test system: UO-31 renal

**Q.** Which GI50 (786-0 renal) does the source give for `Cn1cc(-c2cc3nc(-c4cn(C)c5ncccc45)cc(N)n3n2)c2cc(Cl)ccc21` here?
**A.** 1650 nM

**Q.** What about the TGI (786-0 renal) of the same compound?
**A.** 3030 nM

**Q.** And the GI50 (A498 renal)?
**A.** 1900 nM

**Q.** And the TGI (A498 renal)?
**A.** 5370 nM

**Q.** And the GI50 (A549 NSCLC)?
**A.** 2870 nM

**Q.** What about the TGI (A549 NSCLC) of the same compound?
**A.** 12000 nM

**Q.** What about the GI50 (ACHN renal) of the same compound?
**A.** 1860 nM

**Q.** And the TGI (ACHN renal)?
**A.** 3530 nM

**Q.** And the GI50 (BT-549 breast)?
**A.** 1590 nM

**Q.** What about the TGI (BT-549 breast) of the same compound?
**A.** 3090 nM

**Q.** And the GI50 (CAKI-1 renal)?
**A.** 1850 nM

**Q.** And the TGI (CAKI-1 renal)?
**A.** 4380 nM

**Q.** What about the GI50 (CCRF-CEM leukemia) of the same compound?
**A.** 2580 nM

**Q.** What about the TGI (CCRF-CEM leukemia) of the same compound?
**A.** > 100000 nM

**Q.** What about the GI50 (COLO 205 colon) of the same compound?
**A.** 1770 nM

**Q.** And the TGI (COLO 205 colon)?
**A.** 3240 nM

**Q.** What about the GI50 (DU-145 prostate) of the same compound?
**A.** 2540 nM

**Q.** And the TGI (DU-145 prostate)?
**A.** 7060 nM

**Q.** What about the GI50 (EKVX NSCLC) of the same compound?
**A.** 1680 nM

**Q.** What about the TGI (EKVX NSCLC) of the same compound?
**A.** 3510 nM

**Q.** What about the GI50 (HCC-2998 colon) of the same compound?
**A.** 1710 nM

**Q.** And the TGI (HCC-2998 colon)?
**A.** 3120 nM

**Q.** And the GI50 (HCT-116 colon)?
**A.** 1620 nM

**Q.** And the TGI (HCT-116 colon)?
**A.** 2980 nM

**Q.** What about the GI50 (HCT-15 colon) of the same compound?
**A.** 1890 nM

**Q.** What about the TGI (HCT-15 colon) of the same compound?
**A.** 4360 nM

**Q.** And the GI50 (HOP-62 NSCLC)?
**A.** 1960 nM

**Q.** What about the TGI (HOP-62 NSCLC) of the same compound?
**A.** 4210 nM

**Q.** What about the GI50 (HOP-92 NSCLC) of the same compound?
**A.** 2160 nM

**Q.** And the TGI (HOP-92 NSCLC)?
**A.** 4140 nM

**Q.** What about the GI50 (HS 578T breast) of the same compound?
**A.** 2100 nM

**Q.** What about the TGI (HS 578T breast) of the same compound?
**A.** 5250 nM

**Q.** And the GI50 (HT29 colon)?
**A.** 1980 nM

**Q.** And the TGI (HT29 colon)?
**A.** 4100 nM

**Q.** What about the GI50 (IGROV1 ovarian) of the same compound?
**A.** 1870 nM

**Q.** What about the TGI (IGROV1 ovarian) of the same compound?
**A.** 3490 nM

**Q.** And the GI50 (K-562 leukemia)?
**A.** 1750 nM

**Q.** What about the TGI (K-562 leukemia) of the same compound?
**A.** 4410 nM

**Q.** And the GI50 (KM12 colon)?
**A.** 2140 nM

**Q.** What about the TGI (KM12 colon) of the same compound?
**A.** 4760 nM

**Q.** What about the GI50 (LOX IMVI melanoma) of the same compound?
**A.** 1770 nM

**Q.** What about the TGI (LOX IMVI melanoma) of the same compound?
**A.** 3160 nM

**Q.** And the GI50 (M14 melanoma)?
**A.** 1670 nM

**Q.** What about the TGI (M14 melanoma) of the same compound?
**A.** 3140 nM

**Q.** And the GI50 (MALME-3M melanoma)?
**A.** 1710 nM

**Q.** What about the TGI (MALME-3M melanoma) of the same compound?
**A.** 3150 nM

**Q.** And the GI50 (MCF7 breast)?
**A.** 1830 nM

**Q.** And the TGI (MCF7 breast)?
**A.** 4310 nM

**Q.** And the GI50 (MDA-MB-231 breast)?
**A.** 1760 nM

**Q.** And the TGI (MDA-MB-231 breast)?
**A.** 3230 nM

**Q.** And the GI50 (MDA-MB-435)?
**A.** 1710 nM

**Q.** What about the TGI (MDA-MB-435) of the same compound?
**A.** 3290 nM

**Q.** What about the GI50 (MDA-MB-468 breast) of the same compound?
**A.** 1500 nM

**Q.** And the TGI (MDA-MB-468 breast)?
**A.** 2860 nM

**Q.** And the GI50 (MOLT-4 leukemia)?
**A.** 2020 nM

**Q.** And the TGI (MOLT-4 leukemia)?
**A.** 5110 nM

**Q.** What about the GI50 (NCI-H226 lung) of the same compound?
**A.** 2020 nM

**Q.** What about the TGI (NCI-H226 lung) of the same compound?
**A.** 4640 nM

**Q.** What about the GI50 (NCI-H23 lung) of the same compound?
**A.** 2320 nM

**Q.** And the TGI (NCI-H23 lung)?
**A.** 6470 nM

**Q.** And the GI50 (NCI-H460 lung)?
**A.** 1880 nM

**Q.** And the TGI (NCI-H460 lung)?
**A.** 3670 nM

**Q.** And the GI50 (NCI-H522 lung)?
**A.** 1770 nM

**Q.** And the TGI (NCI-H522 lung)?
**A.** 3330 nM

**Q.** And the GI50 (NCI/ADR-RES ovarian)?
**A.** 2250 nM

**Q.** What about the TGI (NCI/ADR-RES ovarian) of the same compound?
**A.** 5300 nM

**Q.** And the GI50 (OVCAR-3 ovarian)?
**A.** 1910 nM

**Q.** What about the TGI (OVCAR-3 ovarian) of the same compound?
**A.** 3590 nM

**Q.** And the GI50 (OVCAR-4 ovarian)?
**A.** 2030 nM

**Q.** What about the TGI (OVCAR-4 ovarian) of the same compound?
**A.** 4740 nM

**Q.** And the GI50 (OVCAR-5 ovarian)?
**A.** 1850 nM

**Q.** What about the TGI (OVCAR-5 ovarian) of the same compound?
**A.** 4480 nM

**Q.** What about the GI50 (OVCAR-8 ovarian) of the same compound?
**A.** 2130 nM

**Q.** And the TGI (OVCAR-8 ovarian)?
**A.** 4820 nM

**Q.** What about the GI50 (PC-3 prostate) of the same compound?
**A.** 2210 nM

**Q.** What about the TGI (PC-3 prostate) of the same compound?
**A.** 7600 nM

**Q.** What about the GI50 (RPMI-8226 leukemia) of the same compound?
**A.** 2400 nM

**Q.** And the TGI (RPMI-8226 leukemia)?
**A.** 6400 nM

**Q.** And the GI50 (RXF 393 renal)?
**A.** 1530 nM

**Q.** What about the TGI (RXF 393 renal) of the same compound?
**A.** 2970 nM

**Q.** What about the GI50 (SF-268 CNS) of the same compound?
**A.** 2130 nM

**Q.** And the TGI (SF-268 CNS)?
**A.** 4830 nM

**Q.** And the GI50 (SF-295 CNS)?
**A.** 1770 nM

**Q.** And the TGI (SF-295 CNS)?
**A.** 3410 nM

**Q.** And the GI50 (SF-539 CNS)?
**A.** 1730 nM

**Q.** And the TGI (SF-539 CNS)?
**A.** 3150 nM

**Q.** And the GI50 (SK-MEL-2 melanoma)?
**A.** 1910 nM

**Q.** And the TGI (SK-MEL-2 melanoma)?
**A.** 3690 nM

**Q.** And the GI50 (SK-MEL-28 melanoma)?
**A.** 1650 nM

**Q.** What about the TGI (SK-MEL-28 melanoma) of the same compound?
**A.** 3040 nM

**Q.** What about the GI50 (SK-MEL-5 melanoma) of the same compound?
**A.** 1590 nM

**Q.** And the TGI (SK-MEL-5 melanoma)?
**A.** 2960 nM

**Q.** What about the GI50 (SK-OV-3 ovarian) of the same compound?
**A.** 2020 nM

**Q.** What about the TGI (SK-OV-3 ovarian) of the same compound?
**A.** 4080 nM

**Q.** And the GI50 (SN12C renal)?
**A.** 1630 nM

**Q.** What about the TGI (SN12C renal) of the same compound?
**A.** 3090 nM

**Q.** And the GI50 (SNB-19 CNS)?
**A.** 3230 nM

**Q.** What about the TGI (SNB-19 CNS) of the same compound?
**A.** 9760 nM

**Q.** What about the GI50 (SW-620 colon) of the same compound?
**A.** 1800 nM

**Q.** And the TGI (SW-620 colon)?
**A.** 3530 nM

**Q.** And the GI50 (T-47D breast)?
**A.** 1800 nM

**Q.** What about the TGI (T-47D breast) of the same compound?
**A.** 4040 nM

**Q.** And the GI50 (TK-10 renal)?
**A.** 1910 nM

**Q.** What about the TGI (TK-10 renal) of the same compound?
**A.** 6910 nM

**Q.** What about the GI50 (U251 CNS) of the same compound?
**A.** 2180 nM

**Q.** What about the TGI (U251 CNS) of the same compound?
**A.** 5030 nM

**Q.** And the GI50 (UACC-257 melanoma)?
**A.** 1720 nM

**Q.** What about the TGI (UACC-257 melanoma) of the same compound?
**A.** 3340 nM

**Q.** What about the GI50 (UACC-62 melanoma) of the same compound?
**A.** 1600 nM

**Q.** And the TGI (UACC-62 melanoma)?
**A.** 3040 nM

**Q.** And the GI50 (UO-31 renal)?
**A.** 1620 nM

**Q.** And the TGI (UO-31 renal)?
**A.** 3310 nM
